From PubChem BioAssay AID1963963 (Molecular Pharmacology Branch, DTP, NCI, 2024)
pIC50: −log10 of the molar value.

System: 958667-338-R-J2-PDC tumor spheroids viability
Test: Anticancer human tumor 958667-338-R-J2-PDC patient-derived colon adenocarcinoma cell line growth inhibition [PI3K]
Settings: spheroids with HUVEC and MSC; for pIC50: curve of first compound; for viability, T/C: stronger effect = lower value
From the text: Combinatorial screen of targeted agents with the PI3K inhibitors inavolisib, alpelisib, duvelisib, and copanlisib in multi-cell type tumor spheroids
A high-throughput screen of multi-cell type tumor spheroids was designed to identify active combinations of targeted small molecules and PI3K pathway inhibitors. Complex spheroids include a stromal component modeled by human endothelial cells (HUVEC) and fibroblasts modeled by human mesenchymal stem cells (MSCs). The concentration ranges selected for each drug and investigational agent were based upon clinically achievable concentrations if the clinical Cmax of the agent was known.
Compounds. The drugs and investigational agents: inavolisib (NSC800729), alpelisib (NSC765974), duvelisib (NSC772469), copanlisib (NSC816437), ipatasertib (NSC767898), afuresertib (NSC778305), talazoparib (NSC767125), sapanisertib (NSC764658), selumetinib (NSC741078), tovorafenib (DAY101, NSC766906), vemurafenib (NSC761431), ravoxertinib (NSC781343), sotorasib (NSC818433), MRTX1133 (NSC 836407), abemaciclib (NSC 768073), palbociclib (NSC758247), venetoclax (NSC 766270), SY5609 (NSC837396), enzalutamide (NSC755605), and darolutamide (NSC825331), were obtained from the National Cancer Institute (NCI) Developmental Therapeutics Program Chemical Repository. The FDA-approved anticancer drug set is available from the NCI Developmental Therapeutics Program. […] The stock solutions were prepared in dimethyl sulfoxide (DMSO, Sigma-Aldrich, St. Louis, MO, cat. D2650) at 800-fold the tested concentration and stored at -70 degrees C prior to their use. All drugs and investigational agents were tested over a range starting from a high concentration at or near the clinical Cmax and decreasing in half-log increments. If the clinical Cmax for an agent had not been determined, the highest concentration tested was 10 microM.
Cell Culture. All cells were maintained in an incubator at 37 degrees C and 5% CO2 with 95% humidity. The PDC lines were cultured according to standard operating procedures established by the NCI PDMR (https://pdmr.cancer.gov/sops/default.htm). All PDCs were thawed and cultured in Matrigel-coated flasks prepared with a working solution of 1X Ham's F-12 nutrient mix, without supplementation (Invitrogen, Waltham, MA, cat. 11765054), 100 U/mL penicillin-streptomycin (Invitrogen, cat. 15140122), and 2.5% Matrigel (Corning Inc., Corning, NY, cat. 354248) for the first three passages. The 354836-022-R-J1-PDC, 475296-252-R-J1-PDC, and 997726-040-R-J2-PDC lines were cultured in 6A media, which includes advanced DMEM/F-12 (Thermo Fisher Scientific, cat. 12634028), 10 mM HEPES (Thermo Fisher Scientific, cat. 15630080), 1X GlutaMAX supplement (Thermo Fisher Scientific, cat. 35050061), 0.1 mg/mL primocin (InvivoGen, San Diego, CA, cat. ant-pm-2), 10% defined fetal bovine serum, heat inactivated (HyClone Laboratories Inc., Logan, UT, cat. SH30070.03HI), 50% L-WRN conditioned media (ATCC, cat. CRL-3276), 1.25 mM N-Acetyl-L-cysteine (Sigma-Aldrich, cat. A9165), 10 mM nicotinamide (Sigma-Aldrich, cat. N0636), 1X B-27 supplement (Thermo Fisher Scientific, cat. 17504044), 1X N-2 supplement (Thermo Fisher Scientific, cat. 17502048), and 10 microM Y-27632 dihydrochloride (Tocris Bioscience, Bristol, United Kingdom, cat. 1254). The 624824-186-R-J2-PDC line was cultured in 6C/Colon 1B media, which includes all 6A media components plus 50 ng/mL human EGF recombinant protein (Thermo Fisher Scientific, cat. PHG0311). […]

[1] = second compound 0.00316 µM, first compound 0.0316 µM
[2] = second compound 0.00316 µM, first compound 0.1 µM
[3] = second compound 0.00316 µM, first compound 0.316 µM
[4] = second compound 0.00316 µM, first compound 1 µM
[5] = second compound 0.00316 µM, first compound 3.16 µM
[6] = second compound 0.00316 µM, first compound 10 µM
[7] = second compound 0.01 µM, first compound 0.0316 µM
[8] = second compound 0.01 µM, first compound 0.1 µM
[9] = second compound 0.01 µM, first compound 0.316 µM
[10] = second compound 0.01 µM, first compound 1 µM
[11] = second compound 0.01 µM, first compound 3.16 µM
[12] = second compound 0.01 µM, first compound 10 µM
[13] = second compound 0.0316 µM, first compound 0.0316 µM
[14] = second compound 0.0316 µM, first compound 0.1 µM
[15] = second compound 0.0316 µM, first compound 0.316 µM
[16] = second compound 0.0316 µM, first compound 1 µM
[17] = second compound 0.0316 µM, first compound 3.16 µM
[18] = second compound 0.0316 µM, first compound 10 µM
[19] = second compound 0.1 µM, first compound 0.0316 µM
[20] = second compound 0.1 µM, first compound 0.1 µM
[21] = second compound 0.1 µM, first compound 0.316 µM
[22] = second compound 0.1 µM, first compound 1 µM
[23] = second compound 0.1 µM, first compound 3.16 µM
[24] = second compound 0.1 µM, first compound 10 µM
[25] = second compound 0.316 µM, first compound 0.0316 µM
[26] = second compound 0.316 µM, first compound 0.1 µM
[27] = second compound 0.316 µM, first compound 0.316 µM
[28] = second compound 0.316 µM, first compound 1 µM
[29] = second compound 0.316 µM, first compound 3.16 µM
[30] = second compound 0.316 µM, first compound 10 µM
[31] = second compound 1 µM, first compound 0.0316 µM
[32] = second compound 1 µM, first compound 0.1 µM
[33] = second compound 1 µM, first compound 0.316 µM
[34] = second compound 1 µM, first compound 1 µM
[35] = second compound 1 µM, first compound 3.16 µM
[36] = second compound 1 µM, first compound 10 µM
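Note: spheroids exposed to compounds for seven days before readout.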

## CC1(C)CCC(CN2CCN(c3ccc(C(=O)NS(=O)(=O)c4ccc(NCC5CCOCC5)c([N+](=O)[O-])c4)c(Oc4cnc5[nH]ccc5c4)c3)CC2)=C(c2ccc(Cl)cc2)C1 + CC(Nc1ccc2c(c1)OCCn1cc(N3C(=O)OCC3C(F)F)nc1-2)C(N)=O
Second compound 0.00316 µM
  pIC50: < 5.00
Second compound 0.01 µM
  pIC50: 5.05
Second compound 0.0316 µM
  pIC50: 5.14
Second compound 0.1 µM
  pIC50: 5.19
Second compound 0.316 µM
  pIC50: 5.33
Second compound 1 µM
  pIC50: < 5.00
[1]
  viability, T/C: 92.8%
[2]
  viability, T/C: 116%
[3]
  viability, T/C: 95.6%
[4]
  viability, T/C: 111%
[5]
  viability, T/C: 102%
[6]
  viability, T/C: 69.5%
[7]
  viability, T/C: 91.6%
[8]
  viability, T/C: 89.3%
[9]
  viability, T/C: 91.2%
[10]
  viability, T/C: 87.3%
[11]
  viability, T/C: 86.3%
[12]
  viability, T/C: 46.4%
[13]
  viability, T/C: 84.2%
[14]
  viability, T/C: 118%
[15]
  viability, T/C: 86%
[16]
  viability, T/C: 97.9%
[17]
  viability, T/C: 86.9%
[18]
  viability, T/C: 36.1%
[19]
  viability, T/C: 72%
[20]
  viability, T/C: 79.7%
[21]
  viability, T/C: 74.3%
[22]
  viability, T/C: 77.4%
[23]
  viability, T/C: 96.6%
[24]
  viability, T/C: 31%
[25]
  viability, T/C: 71.7%
[26]
  viability, T/C: 59.5%
[27]
  viability, T/C: 67.5%
[28]
  viability, T/C: 71.8%
[29]
  viability, T/C: 70.1%
[30]
  viability, T/C: 15.5%
[31]
  viability, T/C: 49%
[32]
  viability, T/C: 60.7%
[33]
  viability, T/C: 63%
[34]
  viability, T/C: 63.4%
[35]
  viability, T/C: 60.7%
[36]
  viability, T/C: 35.5%

## C[C@@H](NC(=O)c1ncnc(N)c1Cl)c1ncc(C(=O)Nc2cc(C(F)(F)F)c(Cl)cn2)s1 + CC(Nc1ccc2c(c1)OCCn1cc(N3C(=O)OCC3C(F)F)nc1-2)C(N)=O
Second compound 0.00316 µM
  pIC50: < 5.00
Second compound 0.01 µM
  pIC50: < 5.00
Second compound 0.0316 µM
  pIC50: < 5.00
Second compound 0.1 µM
  pIC50: < 5.00
Second compound 0.316 µM
  pIC50: < 5.00
Second compound 1 µM
  pIC50: < 5.00
[1]
  viability, T/C: 112%
[2]
  viability, T/C: 116%
[3]
  viability, T/C: 87.5%
[4]
  viability, T/C: 120%
[5]
  viability, T/C: 115%
[6]
  viability, T/C: 103%
[7]
  viability, T/C: 118%
[8]
  viability, T/C: 131%
[9]
  viability, T/C: 113%
[10]
  viability, T/C: 111%
[11]
  viability, T/C: 101%
[12]
  viability, T/C: 102%
[13]
  viability, T/C: 90.4%
[14]
  viability, T/C: 97%
[15]
  viability, T/C: 92%
[16]
  viability, T/C: 96.1%
[17]
  viability, T/C: 101%
[18]
  viability, T/C: 108%
[19]
  viability, T/C: 88.5%
[20]
  viability, T/C: 97.4%
[21]
  viability, T/C: 93.9%
[22]
  viability, T/C: 94.2%
[23]
  viability, T/C: 90.1%
[24]
  viability, T/C: 76.2%
[25]
  viability, T/C: 67.7%
[26]
  viability, T/C: 72.4%
[27]
  viability, T/C: 95.1%
[28]
  viability, T/C: 80.8%
[29]
  viability, T/C: 77.8%
[30]
  viability, T/C: 80%
[31]
  viability, T/C: 61.2%
[32]
  viability, T/C: 59.8%
[33]
  viability, T/C: 59.3%
[34]
  viability, T/C: 64.3%
[35]
  viability, T/C: 75.5%
[36]
  viability, T/C: 58.9%
